From PubChem BioAssay (NCI)
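Interpolation was linear, between the two tested concentrations surrounding the appropriate level; five concentrations were tested over 48 hours in 96-well plates. Here, GI50 denotes the concentration required for 50% inhibition of growth. TGI: concentration producing complete growth inhibition.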

Tests used:
Experiment in all cases: growth of human tumour cells (NCI), 48 h
786-0 renal = test system: 786-0 renal
A498 renal = test system: A498 renal
A549 NSCLC = test system: A549 NSCLC
ACHN renal = test system: ACHN renal
BT-549 breast = test system: BT-549 breast
CAKI-1 renal = test system: CAKI-1 renal
CCRF-CEM leukemia = test system: CCRF-CEM leukemia
COLO 205 colon = test system: COLO 205 colon
DU-145 prostate = test system: DU-145 prostate
EKVX NSCLC = test system: EKVX NSCLC
HCC-2998 colon = test system: HCC-2998 colon
HCT-116 colon = test system: HCT-116 colon
HCT-15 colon = test system: HCT-15 colon
HL-60(TB) leukemia = test system: HL-60(TB) leukemia
HOP-62 NSCLC = test system: HOP-62 NSCLC
HOP-92 NSCLC = test system: HOP-92 NSCLC
HS 578T breast = test system: HS 578T breast
HT29 colon = test system: HT29 colon
IGROV1 ovarian = test system: IGROV1 ovarian
K-562 leukemia = test system: K-562 leukemia
KM12 colon = test system: KM12 colon
LOX IMVI melanoma = test system: LOX IMVI melanoma
M14 melanoma = test system: M14 melanoma
MALME-3M melanoma = test system: MALME-3M melanoma
MCF7 breast = test system: MCF7 breast
MDA-MB-231 breast = test system: MDA-MB-231 breast
MDA-MB-435 = test system: MDA-MB-435
MDA-MB-468 breast = test system: MDA-MB-468 breast
MOLT-4 leukemia = test system: MOLT-4 leukemia
NCI-H226 lung = test system: NCI-H226 lung
NCI-H23 lung = test system: NCI-H23 lung
NCI-H460 lung = test system: NCI-H460 lung
NCI-H522 lung = test system: NCI-H522 lung
NCI/ADR-RES ovarian = test system: NCI/ADR-RES ovarian
OVCAR-3 ovarian = test system: OVCAR-3 ovarian
OVCAR-4 ovarian = test system: OVCAR-4 ovarian
OVCAR-5 ovarian = test system: OVCAR-5 ovarian
OVCAR-8 ovarian = test system: OVCAR-8 ovarian
PC-3 prostate = test system: PC-3 prostate
RPMI-8226 leukemia = test system: RPMI-8226 leukemia
RXF 393 renal = test system: RXF 393 renal
SF-268 CNS = test system: SF-268 CNS
SF-295 CNS = test system: SF-295 CNS
SF-539 CNS = test system: SF-539 CNS
SK-MEL-2 melanoma = test system: SK-MEL-2 melanoma
SK-MEL-28 melanoma = test system: SK-MEL-28 melanoma
SK-MEL-5 melanoma = test system: SK-MEL-5 melanoma
SK-OV-3 ovarian = test system: SK-OV-3 ovarian
SN12C renal = test system: SN12C renal
SNB-19 CNS = test system: SNB-19 CNS
SNB-75 CNS = test system: SNB-75 CNS
SR leukemia = test system: SR leukemia
SW-620 colon = test system: SW-620 colon
T-47D breast = test system: T-47D breast
TK-10 renal = test system: TK-10 renal
U251 CNS = test system: U251 CNS
UACC-257 melanoma = test system: UACC-257 melanoma
UACC-62 melanoma = test system: UACC-62 melanoma
UO-31 renal = test system: UO-31 renal

## COc1ccc2ncc(C#Cc3cncc(C(=O)Nc4ccc(CN5CCN(C)CC5)c(C(F)(F)F)c4)c3)n2n1
786-0 renal
  GI50: 3.53 µM
  TGI: 15.6 µM
A498 renal
  GI50: 14.2 µM
  TGI: > 37.7 µM
A549 NSCLC
  GI50: 1.27 µM
  TGI: 17.7 µM
ACHN renal
  GI50: 1.39 µM
  TGI: > 28.4 µM
BT-549 breast
  GI50: 1.47 µM
  TGI: 9.85 µM
CAKI-1 renal
  GI50: 1.08 µM
  TGI: 10.5 µM
CCRF-CEM leukemia
  GI50: 0.203 µM
  TGI: > 72 µM
COLO 205 colon
  GI50: 0.265 µM
  TGI: 2.34 µM
DU-145 prostate
  GI50: 2.19 µM
  TGI: 13.4 µM
EKVX NSCLC
  GI50: 1.22 µM
  TGI: 13.3 µM
HCC-2998 colon
  GI50: 4.16 µM
  TGI: 14.4 µM
HCT-116 colon
  GI50: 0.244 µM
  TGI: 5.55 µM
HCT-15 colon
  GI50: 0.496 µM
  TGI: 9.8 µM
HL-60(TB) leukemia
  GI50: 0.31 µM
  TGI: 4.25 µM
HOP-62 NSCLC
  GI50: 1.16 µM
  TGI: 16.6 µM
HOP-92 NSCLC
  GI50: 0.238 µM
  TGI: 2.9 µM
HS 578T breast
  GI50: 0.398 µM
  TGI: 6.06 µM
HT29 colon
  GI50: 0.444 µM
  TGI: 9.45 µM
IGROV1 ovarian
  GI50: 3.81 µM
  TGI: > 30.2 µM
K-562 leukemia
  GI50: 0.0072 µM
  TGI: 1.11 µM
KM12 colon
  GI50: 0.0072 µM
  TGI: 9.17 µM
LOX IMVI melanoma
  GI50: 0.877 µM
  TGI: 4.26 µM
M14 melanoma
  GI50: 0.569 µM
  TGI: 3.12 µM
MALME-3M melanoma
  GI50: 0.384 µM
  TGI: 3.32 µM
MCF7 breast
  GI50: 0.295 µM
  TGI: 3.68 µM
MDA-MB-231 breast
  GI50: 0.61 µM
  TGI: 6.53 µM
MDA-MB-435
  GI50: 0.54 µM
  TGI: 13.3 µM
MDA-MB-468 breast
  GI50: 1.66 µM
  TGI: 13 µM
MOLT-4 leukemia
  GI50: 0.356 µM
  TGI: 4.07 µM
NCI-H226 lung
  GI50: 0.147 µM
  TGI: 2.3 µM
NCI-H23 lung
  GI50: 0.629 µM
  TGI: 10.3 µM
NCI-H460 lung
  GI50: 0.496 µM
  TGI: 13.1 µM
NCI-H522 lung
  GI50: 1.84 µM
  TGI: 14.1 µM
NCI/ADR-RES ovarian
  GI50: 2.23 µM
  TGI: 9.34 µM
OVCAR-3 ovarian
  GI50: 6.35 µM
  TGI: > 39.7 µM
OVCAR-4 ovarian
  GI50: 3.89 µM
  TGI: 18.3 µM
OVCAR-5 ovarian
  GI50: 0.838 µM
  TGI: 9.91 µM
OVCAR-8 ovarian
  GI50: 4.26 µM
  TGI: 18.2 µM
PC-3 prostate
  GI50: 3.76 µM
  TGI: 19.9 µM
RPMI-8226 leukemia
  GI50: 1.39 µM
  TGI: > 72 µM
RXF 393 renal
  GI50: 1.31 µM
  TGI: 8.63 µM
SF-268 CNS
  GI50: 2.83 µM
  TGI: 18.5 µM
SF-295 CNS
  GI50: 0.986 µM
  TGI: 15.5 µM
SF-539 CNS
  GI50: 0.196 µM
  TGI: 1.13 µM
SK-MEL-2 melanoma
  GI50: 1.29 µM
  TGI: 6.54 µM
SK-MEL-28 melanoma
  GI50: 2.59 µM
  TGI: 5.8 µM
SK-MEL-5 melanoma
  GI50: 4.78 µM
  TGI: 14.9 µM
SK-OV-3 ovarian
  GI50: 5.68 µM
  TGI: 20 µM
SN12C renal
  GI50: 1.37 µM
  TGI: 8.03 µM
SNB-19 CNS
  GI50: 9.94 µM
  TGI: 21.5 µM
SNB-75 CNS
  GI50: 5.91 µM
  TGI: 15.9 µM
SR leukemia
  GI50: 0.549 µM
  TGI: > 30.5 µM
SW-620 colon
  GI50: 0.27 µM
  TGI: 7.6 µM
T-47D breast
  GI50: > 72 µM
  TGI: > 72 µM
TK-10 renal
  GI50: 6.03 µM
  TGI: 15.6 µM
U251 CNS
  GI50: 9.62 µM
  TGI: 23.2 µM
UACC-257 melanoma
  GI50: 3.8 µM
  TGI: 16.7 µM
UACC-62 melanoma
  GI50: 8.37 µM
  TGI: 18.2 µM
UO-31 renal
  GI50: 3.23 µM
  TGI: 12.8 µM
